Assay results: patent US11639353B2, “Cyclobutanes- and azetidine-containing mono and spirocyclic compounds as αV integrin inhibitors” (BRISTOL-MYERS SQUIBB COMPANY, priority 2016, dated 2023)

Biological target: T1, human αVβ6 (Homo sapiens, UniProt P06756+P18564)
T1 construct: purchased R & D systems 3817-AV
Experiment: human αVβ6 HTRF binding assay
Settings: alternatively SPA-based assay
Outline: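 Biotinylated recombinant human αVβ6 (1.25 nM final) incubated with FITC-fibronectin (5 nM final) 1 h at RT, then streptavidin-terbium (0.625 nM final) added and left overnight at RT in the dark before HTRF reading. Buffer: 20 mM Tris pH 7.4, 1 mM MgCl2, 1 mM MnCl2, 0.01% Tween 20, 0.01% BSA.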

T1 sequence (P06756 31-992 limits assumed): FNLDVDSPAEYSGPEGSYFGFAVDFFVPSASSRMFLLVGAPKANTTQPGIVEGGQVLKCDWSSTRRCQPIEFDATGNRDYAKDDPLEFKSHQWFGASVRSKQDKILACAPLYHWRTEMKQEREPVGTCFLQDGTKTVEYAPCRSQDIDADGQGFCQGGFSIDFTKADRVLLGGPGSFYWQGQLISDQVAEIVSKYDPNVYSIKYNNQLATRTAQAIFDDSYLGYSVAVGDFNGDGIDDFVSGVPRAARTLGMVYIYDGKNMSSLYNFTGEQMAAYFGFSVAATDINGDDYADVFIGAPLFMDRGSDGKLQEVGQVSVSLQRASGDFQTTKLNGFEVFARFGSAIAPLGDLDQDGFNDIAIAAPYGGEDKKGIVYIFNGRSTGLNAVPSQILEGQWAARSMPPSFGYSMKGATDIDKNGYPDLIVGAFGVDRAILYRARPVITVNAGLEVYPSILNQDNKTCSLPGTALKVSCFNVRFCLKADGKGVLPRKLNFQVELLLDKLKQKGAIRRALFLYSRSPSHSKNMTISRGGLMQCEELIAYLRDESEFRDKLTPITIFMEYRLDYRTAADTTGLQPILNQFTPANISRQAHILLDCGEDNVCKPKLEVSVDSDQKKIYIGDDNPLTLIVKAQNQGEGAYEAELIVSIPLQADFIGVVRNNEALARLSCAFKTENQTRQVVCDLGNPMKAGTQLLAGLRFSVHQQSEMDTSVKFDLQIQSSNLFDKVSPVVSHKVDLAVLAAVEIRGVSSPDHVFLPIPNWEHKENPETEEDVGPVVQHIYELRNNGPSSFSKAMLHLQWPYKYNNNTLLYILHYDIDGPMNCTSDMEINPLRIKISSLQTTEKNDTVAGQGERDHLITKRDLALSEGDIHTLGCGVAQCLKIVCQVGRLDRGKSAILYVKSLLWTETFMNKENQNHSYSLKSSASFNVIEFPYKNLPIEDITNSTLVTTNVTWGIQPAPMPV
T1 sequence (P18564 22-707 limits assumed): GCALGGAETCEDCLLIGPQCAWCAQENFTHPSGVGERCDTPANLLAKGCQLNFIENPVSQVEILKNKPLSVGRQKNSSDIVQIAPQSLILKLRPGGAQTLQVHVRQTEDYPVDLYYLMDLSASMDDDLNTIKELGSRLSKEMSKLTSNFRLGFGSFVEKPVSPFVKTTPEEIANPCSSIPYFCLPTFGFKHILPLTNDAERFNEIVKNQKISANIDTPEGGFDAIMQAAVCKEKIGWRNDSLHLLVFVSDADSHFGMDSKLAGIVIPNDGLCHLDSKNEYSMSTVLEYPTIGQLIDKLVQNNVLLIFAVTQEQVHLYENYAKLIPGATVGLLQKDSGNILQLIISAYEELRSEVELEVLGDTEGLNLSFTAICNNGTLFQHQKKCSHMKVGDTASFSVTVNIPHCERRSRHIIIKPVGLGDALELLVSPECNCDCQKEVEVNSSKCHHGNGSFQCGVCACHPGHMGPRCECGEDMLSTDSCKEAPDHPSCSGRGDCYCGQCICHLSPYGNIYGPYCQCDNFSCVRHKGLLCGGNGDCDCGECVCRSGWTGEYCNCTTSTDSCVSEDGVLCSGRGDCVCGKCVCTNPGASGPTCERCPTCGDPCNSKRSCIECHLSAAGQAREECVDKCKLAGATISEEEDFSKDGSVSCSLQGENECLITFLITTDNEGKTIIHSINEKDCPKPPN

SMILES: COc1ccc(C(CC(=O)O)C2CC3(CC(CCc4ccc5c(n4)NCCC5)C3)C2)cn1 (stereo not shown) [Example 141]
- IC50: 2.9 nM

SMILES: O=C(O)CC(c1cnc2ccccc2c1)C1CN(CCCCc2ccc3c(n2)NCCC3)C1 (stereo not shown) [Example 142]
- IC50: 9.9 nM

SMILES: COc1ccc(C(CC(=O)O)C2CN(CCCCc3ccc4c(n3)NCCC4)C2)cc1F (stereo not shown) [Example 143]
- IC50: 8.5 nM

SMILES: O=C(O)CC(c1ccc(N2CCOCC2)nc1)C1CC2(CC(CCc3ccc4c(n3)NCCC4)C2)C1 (stereo not shown) [Example 144]
- IC50: 4.9 nM

SMILES: O=C(O)CC(c1cccc(N2CCOCC2)c1)C1CC2(CC(CCc3ccc4c(n3)NCCC4)C2)C1 (stereo not shown) [Example 145]
- IC50: 2.7 nM

SMILES: O=C(O)CC(c1cccc(N2CCOCC2)c1)C1CC(CCCCc2ccc3c(n2)NCCC3)C1 (stereo not shown) [Example 146, 3-(3-Morpholinophenyl)-3-(3-(4-(5,6,7,8-tetrahydro-1,8-naphthyridin-2-yl)butyl)cyclobutyl)propanoic acid]
- IC50: 14 nM

SMILES: O=C(O)CC(c1ccc2nccnc2c1)C1CC(NCCCc2ccc3c(n2)NCCC3)C1 (stereo not shown) [Example 148]
- IC50: 6.5 nM

SMILES: CC(=O)N(CCCc1ccc2c(n1)NCCC2)C1CC(C(CC(=O)O)c2cccc(N3CCOCC3)c2)C1 (stereo not shown) [Example 149, 3-(3-Morpholinophenyl)-3-(3-(N-(3-(5,6,7,8-tetrahydro-1,8-naphthyridin-2-yl)propyl)acetamido)cyclobutyl)propanoic acid]
- IC50: 4.6 nM

SMILES: CC(=O)N(CCCc1ccc2c(n1)NCCC2)C1CC(C(CC(=O)O)c2ccc3nccnc3c2)C1 (stereo not shown) [Example 150]
- IC50: 6.7 nM

SMILES: COc1ccc([C@H](CC(=O)O)N2CC(CCCCc3ccc4c(n3)NCCC4)C2)cn1 [Example 151]
- IC50: 3.6 nM

SMILES: O=C(O)C[C@@H](c1cc(F)cc(F)c1)N1CC(CCCCc2ccc3c(n2)NCCC3)C1 [Example 152]
- IC50: 1.4 nM

SMILES: O=C(O)C[C@@H](c1cnc2ccccc2c1)N1CC(CCCCc2ccc3c(n2)NCCC3)C1 [Example 153]
- IC50: 1.1 nM

SMILES: O=C(O)C[C@@H](c1ccc(F)c(F)c1)N1CC(CCCCc2ccc3c(n2)NCCC3)C1 [Example 154]
- IC50: 1.1 nM

SMILES: O=C(O)C[C@@H](c1ccc2c(c1)OCC2)N1CC(CCCCc2ccc3c(n2)NCCC3)C1 [Example 155]
- IC50: 1.5 nM

SMILES: COc1ncc([C@H](CC(=O)O)N2CC(CCCCc3ccc4c(n3)NCCC4)C2)cn1 [Example 156]
- IC50: 2.9 nM

SMILES: O=C(O)C[C@@H](c1cncnc1)N1CC(CCCCc2ccc3c(n2)NCCC3)C1 [Example 157]
- IC50: 3 nM

SMILES: COc1ccc([C@H](CC(=O)O)N2CC(C)(CCCCc3ccc4c(n3)NCCC4)C2)cc1F [Example 158, (S)-3-(3-fluoro-4-methoxyphenyl)-3-(3-methyl-3-(4-(5,6,7,8-tetrahydro-1,8-naphthyridin-2-yl)butyl)azetidin-1-yl)propanoic acid]
- IC50: 1.1 nM

SMILES: CC1(CCCCc2ccc3c(n2)NCCC3)CN([C@@H](CC(=O)O)c2cnc3ccccc3c2)C1 [Example 159]
- IC50: 1.5 nM

SMILES: CC1(CCCCc2ccc3c(n2)NCCC3)CN([C@@H](CC(=O)O)c2cc(F)cc(F)c2)C1 [Example 160]
- IC50: 1.3 nM

SMILES: CC1(CCCCc2ccc3c(n2)NCCC3)CN([C@@H](CC(=O)O)c2ccc(F)c(F)c2)C1 [Example 161]
- IC50: 0.85 nM

SMILES: O=C(O)C[C@@H](c1cc(F)cc(F)c1)N1CC(F)(CCCCc2ccc3c(n2)NCCC3)C1 [Example 162, (S)-3-(3,5-difluorophenyl)-3-(3-fluoro-3-(4-(5,6,7,8-tetrahydro-1,8-naphthyridin-2-yl)butyl)azetidin-1-yl)propanoic acid]
- IC50: 2 nM

SMILES: COc1ccc([C@H](CC(=O)O)N2CC(F)(CCCCc3ccc4c(n3)NCCC4)C2)cn1 [Example 163]
- IC50: 2.4 nM

SMILES: O=C(O)C[C@@H](c1ccc(F)c(F)c1)N1CC(F)(CCCCc2ccc3c(n2)NCCC3)C1 [Example 164]
- IC50: 2.6 nM

SMILES: COc1ccc([C@H](CC(=O)O)N2CC(F)(CCCCc3ccc4c(n3)NCCC4)C2)cc1F [Example 165]
- IC50: 2.5 nM

SMILES: O=C(O)C[C@@H](c1cnc2ccccc2c1)N1CC(F)(CCCCc2ccc3c(n2)NCCC3)C1 [Example 166]
- IC50: 2.2 nM

SMILES: Cc1ncc([C@H](CC(=O)O)N2CC(F)(CCCCc3ccc4c(n3)NCCC4)C2)cn1 [Example 167]
- IC50: 3.3 nM

SMILES: COc1ccc([C@H](CC(=O)O)N2CC(CCCc3ccc4c(n3)NCCC4)C2)cc1F [Example 168, (S)-3-(3-Fluoro-4-methoxyphenyl)-3-(3-(3-(5,6,7,8-tetrahydro-1,8-naphthyridin-2-yl)propyl)azetidin-1-yl)propanoic acid]
- IC50: 2 nM

SMILES: COc1ccc([C@H](CC(=O)O)N2CC(CCCc3ccc4c(n3)NCCC4)C2)cn1 [Example 169]
- IC50: 4 nM

SMILES: O=C(N[C@@H](CC(=O)N1CC(CCc2ccc3c(n2)NCCC3)C1)C(=O)O)OCC1CCC1 [Example 174, (S)-2-(((cyclobutylmethoxy)carbonyl)amino)-4-oxo-4-(3-(2-(5,6,7,8-tetrahydro-1,8-naphthyridin-2-yl)ethyl)azetidin-1-yl)butanoic acid]
- IC50: 68 nM

SMILES: CCCOC(=O)N[C@@H](CC(=O)N1CC(CCc2ccc3c(n2)NCCC3)C1)C(=O)O [Example 175]
- IC50: 735 nM

SMILES: O=C(N[C@@H](CC(=O)N1CC(CCc2ccc3c(n2)NCCC3)C1)C(=O)O)OCc1cccc(F)c1 [Example 176]
- IC50: 294 nM

SMILES: COc1ccc(C(NC(=O)C2CC(CCc3ccc4c(n3)NCCC4)C2)C(C)(C)C(=O)O)cn1 (stereo not shown) [Example 191]
- IC50: 4300 nM

SMILES: COc1ccc(C(NC(=O)C2CC(CCc3ccc4c(n3)NCCC4)C2)C(C)(C)C(=O)O)cn1 (stereo not shown) [Example 192]
- IC50: 4400 nM

SMILES: CCOC(=O)[C@H](CNC(=O)[C@H]1C[C@@H](Cc2ccc3c(n2)NCCC3)C1)NC(=O)OCc1ccccc1 [Example 195, Ethyl (S)-2-(((benzyloxy)carbonyl)amino)-3-(cis-3-((5,6,7,8-tetrahydro-1,8-naphthyridin-2-yl)methyl)cyclobutane-1-carboxamido)propanoate]
- IC50: 13 nM

SMILES: O=C(N[C@@H](CNC(=O)[C@H]1C[C@@H](Cc2ccc3c(n2)NCCC3)C1)C(=O)O)OCc1ccccc1 [Example 196, (S)-2-(((Benzyloxy)carbonyl)amino)-3-(cis-3-((5,6,7,8-tetrahydro-1,8-naphthyridin-2-yl)methyl)cyclobutane-1-carboxamido)propanoic acid]
- IC50: 5.1 nM

SMILES: CCCOC(=O)N[C@@H](CNC(=O)[C@H]1C[C@@H](Cc2ccc3c(n2)NCCC3)C1)C(=O)O [Example 198]
- IC50: 1.9 nM

SMILES: O=C(N[C@@H](CNC(=O)[C@H]1C[C@@H](Cc2ccc3c(n2)NCCC3)C1)C(=O)O)OCC1CCC1 [Example 199]
- IC50: 2.2 nM

SMILES: Cc1cc(C)c(S(=O)(=O)N[C@@H](CNC(=O)[C@H]2C[C@@H](Cc3ccc4c(n3)NCCC4)C2)C(=O)O)c(C)c1 [Example 200, (S)-3-(cis-3-((5,6,7,8-Tetrahydro-1,8-naphthyridin-2-yl)methyl)-cyclobutane-1-carboxamido)-2-((2,4,6-trimethylphenyl)sulfonamido)-propanoic acid]
- IC50: 3.8 nM

SMILES: COc1ccc([C@H](CC(=O)O)NC(=O)[C@H]2C[C@@H](Cc3ccc4c(n3)NCCC4)C2)cc1F [Example 201, (S)-3-(3-fluoro-4-methoxyphenyl)-3-((1s,3R)-3-((5,6,7,8-tetrahydro-1,8-naphthyridin-2-yl)methyl)cyclobutane-1-carboxamido)propanoic acid]
- IC50: 3.2 nM

SMILES: COc1ccc(C(CC(=O)O)N2CC3(CC(CCc4ccc5c(n4)NCCC5)C3)C2)cc1F (stereo not shown) [Example 204, 3-(3-fluoro-4-methoxyphenyl)-3-(6-(2-(5,6,7,8-tetrahydro-1,8-naphthyridin-2-yl)ethyl)-2-azaspiro[3.3]heptan-2-yl)propanoic acid]
- IC50: 2.2 nM

SMILES: COc1ccc(C(CC(=O)O)N2CC3(CC(CCc4ccc5c(n4)NCCC5)C3)C2)cn1 (stereo not shown) [Example 205]
- IC50: 3.7 nM

SMILES: Cc1ncc(C(CC(=O)O)N2CC3(CC(CCc4ccc5c(n4)NCCC5)C3)C2)cn1 (stereo not shown) [Example 206]
- IC50: 3.3 nM

SMILES: Cc1cc(C)n(-c2cccc(C(CC(=O)O)N3CC4(CC(CCc5ccc6c(n5)NCCC6)C4)C3)c2)n1 (stereo not shown) [Example 207]
- IC50: 2.8 nM

SMILES: COc1ccc(C(CC(=O)O)N2CC3(CC(Cc4ccc5c(n4)NCCC5)C3)C2)cn1 (stereo not shown) [Example 208, 3-(6-methoxypyridin-3-yl)-3-(6-((5,6,7,8-tetrahydro-1,8-naphthyridin-2-yl)methyl)-2-azaspiro[3.3]heptan-2-yl)propanoic acid]
- IC50: 2.4 nM

SMILES: Cc1ncc(C(CC(=O)O)N2CC3(CC(Cc4ccc5c(n4)NCCC5)C3)C2)cn1 (stereo not shown) [Example 209, 3-(2-methylpyrimidin-5-yl)-3-(6-((5,6,7,8-tetrahydro-1,8-naphthyridin-2-yl)methyl)-2-azaspiro[3.3]heptan-2-yl)propanoic acid]
- IC50: 6.8 nM

SMILES: COc1ccc(C(CC(=O)O)N2CC3(CC(Cc4ccc5c(n4)NCCC5)C3)C2)cc1F (stereo not shown) [Example 210, 3-(3-fluoro-4-methoxyphenyl)-3-(6-((5,6,7,8-tetrahydro-1,8-naphthyridin-2-yl)methyl)-2-azaspiro[3.3]heptan-2-yl)propanoic acid]
- IC50: 5.6 nM

SMILES: Cc1cc(C)n(-c2cccc(C(CC(=O)O)N3CC4(CC(Cc5ccc6c(n5)NCCC6)C4)C3)c2)n1 (stereo not shown) [Example 211, 3-(3-(3,5-dimethyl-1H-pyrazol-1-yl)phenyl)-3-(6-((5,6,7,8-tetrahydro-1,8-naphthyridin-2-yl)methyl)-2-azaspiro[3.3]heptan-2-yl)propanoic acid]
- IC50: 3.6 nM

SMILES: Cc1ncc([C@@H](CC(=O)O)N2CC(COCCc3ccc4c(n3)NCCC4)C2)cn1 [example 128, (R)-3-(2-methylpyrimidin-5-yl)-3-(3-((2-(5,6,7,8-tetrahydro-1,8-naphthyridin-2-yl)ethoxy)methyl)azetidin-1-yl)propanoic acid]
- IC50: 38 nM

SMILES: Cc1ncc([C@H](CC(=O)O)N2CC(COCCc3ccc4c(n3)NCCC4)C2)cn1 [example 129, (S)-3-(2-methylpyrimidin-5-yl)-3-(3-((2-(5,6,7,8-tetrahydro-1,8-naphthyridin-2-yl)ethoxy)methyl)azetidin-1-yl)propanoic acid]
- IC50: 3.2 nM
